Test results reported in patent publication US4559323A, “A41030 Antibiotics” (Eli Lilly and Company, priority 1984, dated 1985).
≈ marks a conversion by molar mass, not a printed value.

Experiments:
[1] = tested on: Serratia marcescens; assay: Agar-dilution MIC; type: cell-based; conditions: Table 17; 24 hours; Serratia marcescens X99
[2] = tested on: Neisseria sp.; assay: Agar-dilution MIC; type: cell-based; conditions: Table 10
Protocol: The test results are recorded in Table 10, which follows.

SMILES | MIC [1] | MIC ([2]; strain L. Nance) | MIC ([2]; strain Mitchell) | MIC ([2]; strain Sanders) | MIC ([2]; strain Schultz) | MIC ([2]; strain Woods)
N[C@H]1C(=O)N[C@@H]2Cc3ccc(c(Cl)c3)Oc3cc4cc(c3O)Oc3ccc(cc3Cl)[C@@H](O)[C@@H]3NC(=O)C(NC(=O)[C@@H]4NC(=O)[C@@H](NC2=O)c2cc(O)cc(c2)Oc2cc1ccc2O)c1ccc(O)c(c1)-c1c(O)cc(O)cc1[C@@H](C(=O)O)NC3=O [A41030 factor B] | 128 µg/mL (≈ 107 µM) | – | – | – | – | –
NC1C(=O)NC2Cc3ccc(c(Cl)c3)Oc3cc4cc(c3O)Oc3ccc(cc3Cl)C(O)C3NC(=O)C(NC(=O)C4NC(=O)C(NC2=O)c2cc(O)cc(c2)Oc2cc1ccc2O)c1cc(Cl)c(O)c(c1)-c1c(O)cc(O)cc1C(C(=O)O)NC3=O (stereo not drawn) [A41030 factor A] | – | 4.0 µg/mL (≈ 3.24 µM) | 4.0 µg/mL (≈ 3.24 µM) | 1.0 µg/mL (≈ 0.811 µM) | 8.0 µg/mL (≈ 6.49 µM) | 4.0 µg/mL (≈ 3.24 µM)
